According to paper PMC10023787, “Trio-pharmacophore DNA-encoded chemical library for simultaneous selection of fragments and linkers” (Nature Communications, 2023):
Entries after “also recorded” stand apart in the source; their conditions may differ. Read-outs that look alike come from different tables or passages of the source.

What was measured:
MMP-9 = target: T1, MMP-9 (Homo sapiens, UniProt P14780); test: MMP-9 inhibition assay (fluorogenic peptide substrate); type: biochemical; conditions: for remaining activity at 0.078016 µM: fragment concentration 0.078016 µM; for remaining activity at 0.39008 µM: fragment concentration 0.39008 µM; for remaining activity at 1.9504 µM: fragment concentration 1.9504 µM; for remaining activity at 9.752 µM: fragment concentration 9.752 µM; for inhibitory effect: in words
T1 construct: purchased Sino Biological 10327-HNAH
T1 sequence (P14780 107-707 limits assumed): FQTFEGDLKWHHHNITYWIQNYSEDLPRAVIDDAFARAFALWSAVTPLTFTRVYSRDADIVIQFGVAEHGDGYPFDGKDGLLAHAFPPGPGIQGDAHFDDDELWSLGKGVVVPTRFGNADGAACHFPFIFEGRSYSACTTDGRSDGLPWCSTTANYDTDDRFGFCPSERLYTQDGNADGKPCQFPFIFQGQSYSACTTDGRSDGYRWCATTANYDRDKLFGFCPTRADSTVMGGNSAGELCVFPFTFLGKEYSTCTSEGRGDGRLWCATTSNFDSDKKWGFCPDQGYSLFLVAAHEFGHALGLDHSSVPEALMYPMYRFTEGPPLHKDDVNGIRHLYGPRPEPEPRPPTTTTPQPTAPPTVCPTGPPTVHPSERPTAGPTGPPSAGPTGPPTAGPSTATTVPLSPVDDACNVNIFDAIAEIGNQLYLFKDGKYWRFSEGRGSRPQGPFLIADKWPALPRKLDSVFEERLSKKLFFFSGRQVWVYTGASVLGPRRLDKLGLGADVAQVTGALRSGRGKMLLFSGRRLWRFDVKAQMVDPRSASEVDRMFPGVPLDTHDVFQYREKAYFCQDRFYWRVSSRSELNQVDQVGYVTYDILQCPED
Summary of the method: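 Hydrolysis of DNP-Pro-Leu-Gly-Met-Trp-Ser-Arg (25 μM final) was tracked kinetically at em 360 nm over 30 min. Enzymes, APMA-activated and at 10 nM (MMP-9) or 6.5 nM (MMP-2) final, sat 30 min at RT with inhibitor in pH 7.5 Tris buffer with CaCl2 and Brij 35 first. Logistic fitting of Vmax against concentration gave IC50, in triplicate.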

MMP-2 = target: T2, MMP-2 (Homo sapiens, UniProt P08253); test: De novo T-DEL selection against MMP-2, NGS decoding; type: binding; conditions: for Enrichment Fold / Count: MMP2 selection; for Count: NGS sequence count per Compound ID (Figure 4a)
T2 construct: purchased Sino Biological 10082-HNAH
T2 sequence (P08253 110-660): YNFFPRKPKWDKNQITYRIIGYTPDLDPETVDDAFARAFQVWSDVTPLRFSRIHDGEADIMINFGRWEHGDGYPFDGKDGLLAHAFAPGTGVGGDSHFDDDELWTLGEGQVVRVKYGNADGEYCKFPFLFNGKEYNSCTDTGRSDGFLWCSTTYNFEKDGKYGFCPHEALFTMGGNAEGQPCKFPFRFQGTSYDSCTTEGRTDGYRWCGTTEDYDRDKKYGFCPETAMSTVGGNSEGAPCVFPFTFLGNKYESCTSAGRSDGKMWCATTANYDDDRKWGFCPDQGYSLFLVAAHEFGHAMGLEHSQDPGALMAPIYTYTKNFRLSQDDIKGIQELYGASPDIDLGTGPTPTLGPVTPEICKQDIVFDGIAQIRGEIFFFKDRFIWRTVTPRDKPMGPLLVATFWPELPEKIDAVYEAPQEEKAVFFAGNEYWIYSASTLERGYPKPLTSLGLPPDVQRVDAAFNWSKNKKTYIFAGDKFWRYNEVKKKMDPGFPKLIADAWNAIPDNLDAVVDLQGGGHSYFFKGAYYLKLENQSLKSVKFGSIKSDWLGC
From the text: Matrix metalloproteinases (MMPs) are zinc-dependent endopeptidases capable of degrading and remodeling extracellular matrix components[46],[47]. They are attractive therapeutic targets as high expression levels were detected in various diseases, such as inflammatory diseases, and at different stages of cancers, including metastasis, invasion, and angiogenesis[47]–[53]. As shown in Supplementary Fig. 3c, we performed selections against the two gelatinases (human MMP-2 and human MMP-9) to identify binding fragments for later design and synthesis of small molecule inhibitors. After selection, the three sub-libraries were decoded, and the enrichment was calculated by dividing the post-selection fraction (count/total counts) by the pre-selection fraction (Fig. 4a and Supplementary Fig. 13).
4 µg of MMP-2/MMP-9 was dissolved in 100 µl of selection buffer containing 25 mM Tris-base, 10 mM CaCl2, 150 mM NaCl, 0.05% Tween 20, pH 7.5. 10 µl of 4-Aminophenylmercuric acetate (APMA) (100 mM) solution was added to the protein solution and incubated at 37 °C for 1 h. After activation, the solution was added on top of 40 µl pre-washed Ni-NTA resin and incubated for 30 min on a rotary shaker. The supernatant was discarded, and the resin was washed three times with the selection buffer.
For each independent selection, three sub-libraries were mixed in the selection buffer with a final concentration of 40 nM of each sub-library in 100 µl. The mixture was heat denatured at 90 °C for 1 min and slowly cooled down to allow the formation of the trio-pharmacophore library. The dynamic dual-pharmacophore DEL was provided by DyNAbind GmbH (Merck, DYNA001).
The assembled library was incubated with the protein-bound solid support for 2 h at RT on a rotary shaker. In parallel, selection on bare solid support served as the negative control to exclude promiscuous binders on the resin. After panning, the supernatant was discarded, and the resin was washed three times with 1 ml selection buffer. Finally, 100 µl of 50 mM Tris buffer, pH 7.4 was added to resuspend the resin and the resin was incubated at 95 °C for 5 min to denature the protein, release, and collect the bound library members.
The eluted library members were subjected to sample preparation for NGS. NGS preparation was achieved by two-step PCR. First, the individual selection was indexed using primers containing unique sequences corresponding to each selection. The amplified product was purified from 2% agarose gel. Second, the purified DNA from all selections were pooled in equal amount and subjected to the 2nd PCR step to attach sequences compatible with the NGS flow cell and the sequencing primers. NGS was performed by Novogene UK with Novaseq 6000. Raw data files (fastq files) obtained were decoded using a custom python script and excel. The sequence reads corresponding to each sample was retrieved by searching for the correct index unique to each selection. Then, the code region was extracted from each sequence and assigned to the corresponding identity. The count of each code in each selection sample was obtained by looping through the total reads and counting the occurrence of each code. The enrichment fold of each compound was calculated by first, dividing the count by the total count to get the abundance, second, the abundance after the selection was divided by the abundance of pre-selection to reflect the distribution change of the compound. Next, the enrichment fold was plotted against the count for each member of the library to give the scatter plots as in Fig. 4.

[1] = Figure 5b, read-out: Normalized activity (Mean)
[2] = Figure 5b, fragment concentration 48.76 µM, read-out: Normalized activity (Mean)
[3] = Figure 5b, fragment concentration 243.8 µM, read-out: Normalized activity (Mean)
[4] = Figure 5b, fragment concentration 1219 µM, read-out: Normalized activity (Mean)
[5] = MMP-9, concentration 0.08 µM, read-out: Mean (dose-response, Supplementary fig 17)
[6] = MMP-9, concentration 0.39 µM, read-out: Mean (dose-response, Supplementary fig 17)
[7] = MMP-9, concentration 1.95 µM, read-out: Mean (dose-response, Supplementary fig 17)
[8] = MMP-9, concentration 9.75 µM, read-out: Mean (dose-response, Supplementary fig 17)
[9] = MMP-9, concentration 48.76 µM, read-out: Mean (dose-response, Supplementary fig 17)
[10] = MMP-9, concentration 243.80 µM, read-out: Mean (dose-response, Supplementary fig 17)
[11] = MMP-9, concentration 1219.00 µM, read-out: Mean (dose-response, Supplementary fig 17)

SMILES | remaining activity at 0.078016 µM (MMP-9; [1]) [%] | remaining activity at 0.39008 µM (MMP-9; [1]) [%] | remaining activity at 1.9504 µM (MMP-9; [1]) [%] | remaining activity at 9.752 µM (MMP-9; [1]) [%] | remaining activity at 48.76 µM (MMP-9; [2]) [%] | remaining activity at 243.8 µM (MMP-9; [3]) [%] | remaining activity at 1219 µM (MMP-9; [4]) [%] | remaining activity at 0.08 µM (MMP-9; [5]) [%] | remaining activity at 0.39 µM (MMP-9; [6]) [%] | remaining activity at 1.95 µM (MMP-9; [7]) [%] | remaining activity at 9.75 µM (MMP-9; [8]) [%] | remaining activity at 48.76 µM (MMP-9; [9]) [%] | remaining activity at 243.8 µM (MMP-9; [10]) [%] | remaining activity at 1219 µM (MMP-9; [11]) [%] | inhibitory effect (MMP-9) | other results
O=C(O)CNC(=O)NC12CC3CC(CC(C3)C1)C2 [Compound 66] | 96.6 | 92.7 | 92.2 | 92.5 | 86.3 | 85 | 74.6 | 96.6 | 92.7 | 92.2 | 92.5 | 86.3 | 85 | 74.6 | No inhibitory effects could be measured; also recorded: did not exhibit meaningful activity | Enrichment Fold (MMP-2; sub-library SL-A (Figure 4a)): 8.24; Count (MMP-2; sub-library SL-A): 13510; Enrichment Fold (MMP-2; sub-library SL-C (Figure 4a)): 0.3913; Count (MMP-2; sub-library SL-C): 81
NCc1c[nH]nn1 [Compound 787] | 99.6 | 103 | 88 | 89.2 | 88.6 | 78.5 | 32.5 | 99.6 | 103 | 88 | 89.2 | 88.6 | 78.5 | 32.5 | high µM | remaining activity at 0.08 µM (MMP-9; MMP-9, concentration 0.08 µM, read-out: Mean (MMP-9, Supplementary fig 16)): 99.6%; remaining activity at 0.39 µM (MMP-9; MMP-9, concentration 0.39 µM, read-out: Mean (MMP-9, Supplementary fig 16)): 103%; remaining activity at 1.95 µM (MMP-9; MMP-9, concentration 1.95 µM, read-out: Mean (MMP-9, Supplementary fig 16)): 88%; remaining activity at 9.75 µM (MMP-9; MMP-9, concentration 9.75 µM, read-out: Mean (MMP-9, Supplementary fig 16)): 89.2%; remaining activity at 48.76 µM (MMP-9; MMP-9, concentration 48.76 µM, read-out: Mean (MMP-9, Supplementary fig 16)): 88.6%; remaining activity at 243.8 µM (MMP-9; MMP-9, concentration 243.80 µM, read-out: Mean (MMP-9, Supplementary fig 16)): 78.5%; remaining activity at 1219 µM (MMP-9; MMP-9, concentration 1219.00 µM, read-out: Mean (MMP-9, Supplementary fig 16)): 32.5%; remaining activity at 0.08 µM (MMP-9; MMP-9, concentration 0.08 µM, read-out: Mean (MMP-9 dose-response, Supplementary fig 15)): 99.6%; remaining activity at 0.39 µM (MMP-9; MMP-9, concentration 0.39 µM, read-out: Mean (MMP-9 dose-response, Supplementary fig 15)): 103%; remaining activity at 1.95 µM (MMP-9; MMP-9, concentration 1.95 µM, read-out: Mean (MMP-9 dose-response, Supplementary fig 15)): 88%; remaining activity at 9.75 µM (MMP-9; MMP-9, concentration 9.75 µM, read-out: Mean (MMP-9 dose-response, Supplementary fig 15)): 89.2%; remaining activity at 48.76 µM (MMP-9; MMP-9, concentration 48.76 µM, read-out: Mean (MMP-9 dose-response, Supplementary fig 15)): 88.6%; remaining activity at 243.8 µM (MMP-9; MMP-9, concentration 243.80 µM, read-out: Mean (MMP-9 dose-response, Supplementary fig 15)): 78.5%; remaining activity at 1219 µM (MMP-9; MMP-9, concentration 1219.00 µM, read-out: Mean (MMP-9 dose-response, Supplementary fig 15)): 32.5%; IC50 (MMP-9; mean ± SE, n.d: not detected, Fig. 5e prints no unit, µM, read-out: IC50): 784 ± 115 µM; MMP2 SL-A Count (MMP-2; NGS sequence count of sub-library SL-A building block, de novo T-DEL selection against MMP-2): 589; MMP2 SL-C Count (MMP-2; NGS sequence count of sub-library SL-C building block, de novo T-DEL selection against MMP-2): 2395; MMP2 SL-A Enrichment Fold (MMP-2; sub-library SL-A building block, de novo T-DEL selection against MMP-2): 0.846; MMP2 SL-C Enrichment Fold (MMP-2; sub-library SL-C building block, de novo T-DEL selection against MMP-2): 2.519
